Results on two molecules are retold here after ChEMBL document CHEMBL3046894, “Synthesis and Herbicidal Activity of Pyrimidinyl Salicylic and Thiosalicylic Acids” (J Pestic Sci, 1996).

Data set [1] relates to Gossypium hirsutum. Briefly: (§1) Post-emergence phytotoxicity against Gossypium hirsutum (cotton) assessed as mortality at 1.6 g a.i/10 a applied 11 days after germination as foliar spray. It counts as organism-based. The following applies: in vivo, other, 264 h.
Data set [2] concerns Abutilon theophrasti. Briefly: Pre-emergence herbicidal activity against Abutilon theophrasti (velvetleaf) assessed as mortality at 1.6 g a.i/10 a. It counts as functional.
In data set [3] the test system is Echinochloa crus-galli. Briefly: Pre-emergence herbicidal activity against Echinochloa crus-galli (barnyard grass) assessed as mortality at 6.3 g a.i/10 a. Format: functional.
In data set [4] the test system is Glycine max. Briefly: Post-emergence phytotoxicity against Glycine max (soybean) assessed as mortality at 6.3 g a.i/10 a applied 11 days after germination as foliar spray. It counts as organism-based. The conditions noted are these: in vivo, other, 264 h.
The test system of data set [5] is Abutilon theophrasti. Briefly: Post-emergence herbicidal activity against Abutilon theophrasti (velvetleaf) assessed as mortality at 6.3 g a.i/10 a applied 11 days after germination as foliar spray. It counts as functional. The following applies: 264 h.
Data set [6] has as its system Zea mays. Briefly: Post-emergence phytotoxicity against Zea mays (maize) assessed as mortality at 1.6 g a.i/10 a applied 11 days after germination as foliar spray. It counts as organism-based. The conditions noted are these: in vivo, other, 264 h.
The subject of data set [7] is Xanthium strumarium. Briefly: Pre-emergence herbicidal activity against Xanthium strumarium (cocklebur) assessed as mortality at 6.3 g a.i/10 a. Format: functional.
Data set [8] deals with Echinochloa crus-galli. Briefly: Post-emergence herbicidal activity against Echinochloa crus-galli (barnyard grass) assessed as mortality at 1.6 g a.i/10 a applied 11 days after germination as foliar spray. Format: functional. The conditions noted are these: 264 h.
Data set [9] has as its system Ipomoea lacunosa. Briefly: Pre-emergence herbicidal activity against Ipomoea lacunosa assessed as mortality at 6.3 g a.i/10 a. Format: functional.
In data set [10] the test system is Ipomoea lacunosa. Briefly: Pre-emergence herbicidal activity against Ipomoea lacunosa assessed as mortality at 1.6 g a.i/10 a. Format: functional.
A short description of data set [11]: (§2) Post-emergence phytotoxicity against Gossypium hirsutum (cotton) assessed as mortality at 6.3 g a.i/10 a applied 11 days after germination as foliar spray. It counts as organism-based. The following applies: in vivo, 6.3 g a.i/10 a.
In data set [12] the test system is Gossypium hirsutum. Briefly: Pre-emergence phytotoxicity against Gossypium hirsutum (cotton) assessed as mortality at 1.6 g a.i/10 a. It counts as organism-based. The following applies: in vivo, other.
In data set [13] the test system is Echinochloa crus-galli. Briefly: Pre-emergence herbicidal activity against Echinochloa crus-galli (barnyard grass) assessed as mortality at 1.6 g a.i/10 a. Format: functional.
Data set [14] relates to Echinochloa crus-galli. Briefly: Post-emergence herbicidal activity against Echinochloa crus-galli (barnyard grass) assessed as mortality at 6.3 g a.i/10 a applied 11 days after germination as foliar spray. Format: functional. The conditions noted are these: 264 h.
Data set [15] has as its system Xanthium strumarium. Briefly: Pre-emergence herbicidal activity against Xanthium strumarium (cocklebur) assessed as mortality at 1.6 g a.i/10 a. Format: functional.
Data set [16] concerns Zea mays. Briefly: Pre-emergence phytotoxicity against Zea mays (maize) assessed as mortality at 6.3 g a.i/10 a. Format: organism-based. The conditions noted are these: in vivo, other.
Data set [17] is described as follows: Pre-emergence phytotoxicity against Zea mays (maize) assessed as mortality at 1.6 g a.i/10 a. It counts as organism-based. The following applies: in vivo, 1.6 g a.i/10 a, read-out: Activity.
The nature of data set [18]: (§3) Pre-emergence phytotoxicity against Glycine max (soybean) assessed as mortality at 1.6 g a.i/10 a. It counts as organism-based. The following applies: in vivo, 1.6 g a.i/10 a, read-out: Activity.
Data set [19] has as its system Abutilon theophrasti. Briefly: Post-emergence herbicidal activity against Abutilon theophrasti (velvetleaf) assessed as mortality at 1.6 g a.i/10 a applied 11 days after germination as foliar spray. Format: functional. The following applies: 264 h.
Data set [20] concerns Glycine max. Briefly: Post-emergence phytotoxicity against Glycine max (soybean) assessed as mortality at 1.6 g a.i/10 a applied 11 days after germination as foliar spray. Format: organism-based. The following applies: in vivo, other, 264 h.
Data set [21] in a line: (§4) Pre-emergence phytotoxicity against Gossypium hirsutum (cotton) assessed as mortality at 6.3 g a.i/10 a. Format: organism-based. The following applies: in vivo, 6.3 g a.i/10 a, read-out: Activity.
In data set [22] the test system is Ipomoea lacunosa. Briefly: Post-emergence herbicidal activity against Ipomoea lacunosa assessed as mortality at 6.3 g a.i/10 a applied 11 days after germination as foliar spray. Format: functional. The conditions noted are these: 264 h.
Data set [23] relates to Abutilon theophrasti. Briefly: Pre-emergence herbicidal activity against Abutilon theophrasti (velvetleaf) assessed as mortality at 6.3 g a.i/10 a. It counts as functional.
A short description of data set [24]: (§5) Pre-emergence phytotoxicity against Glycine max (soybean) assessed as mortality at 6.3 g a.i/10 a. Format: organism-based. The following applies: in vivo, 6.3 g a.i/10 a, read-out: Activity.
Data set [25] can be described thus: as §1. It counts as organism-based. The conditions noted are these: in vivo, 1.6 g a.i/10 a.
The subject of data set [26] is Gossypium hirsutum. Described as §2. It counts as organism-based. The following applies: in vivo, other, 264 h.
For data set [27], the system named is Glycine max. Described as §3. The conditions noted are these: in vivo, other. It counts as organism-based.
Data set [28] concerns Zea mays. Briefly: Post-emergence phytotoxicity against Zea mays (maize) assessed as mortality at 6.3 g a.i/10 a applied 11 days after germination as foliar spray. The conditions noted are these: in vivo, other, 264 h. Format: organism-based.
The subject of data set [29] is Gossypium hirsutum. The data set is described as §4. Format: organism-based. The following applies: in vivo, other.
For data set [30], the system named is Glycine max. Described as §5. The following applies: in vivo, other. It counts as organism-based.

`COc1cc(OC)nc(Sc2cccc(OC(C)C)c2C(=O)O)n1`: the Activity entry in the data set with Gossypium hirsutum [1] is listed as “Non-toxic”; in the data set with Abutilon theophrasti [2], below 50%; in the data set on Echinochloa crus-galli [3], below 50%; in the data set with Glycine max [4], “Toxic”; in the data set on Zea mays [6], “Toxic”; in the data set on Xanthium strumarium [7] it was below 50%. In addition, the Activity in the data set on Ipomoea lacunosa [9], in the data set on Ipomoea lacunosa [10], with Gossypium hirsutum [12], in the data set on Echinochloa crus-galli [13], with Xanthium strumarium [15] and in the data set with Zea mays [16] was below 50% each time. Besides, the Activity result in the data set on Glycine max [20] is recorded as “Toxic”; in the data set on Abutilon theophrasti [23], below 50%. In addition, the values for the mortality at 63 g/ha in the data set on Abutilon theophrasti [5], with Echinochloa crus-galli [14] and in the data set with Ipomoea lacunosa [22] were above 90%, below 5% and above 90%, respectively. The mortality at 16 g/ha is below 5% in the data set on Echinochloa crus-galli [8] and above 90% in the data set with Abutilon theophrasti [19]. For the same molecule, the mortality at 264 h in data set [11] is above 90%. Also, the mortality in data set [17], in data set [18], in data set [21] and in [24] was below 50% in each case.

Regarding `COc1cc(OC)nc(Sc2cccc(OC)c2C(=O)O)n1`, the mortality at 264 h in [25] is below 5%. The Activity is given as above 90% in the data set on Echinochloa crus-galli [3]; “Toxic” with Glycine max [4]; “Toxic” in the data set with Zea mays [6]; “Non-toxic” in the data set with Gossypium hirsutum [26]; “Non-toxic” in the data set on Gossypium hirsutum [12]; above 90% in the data set with Echinochloa crus-galli [13]. Also, the Activity is above 90% in the data set on Zea mays [16]; “Toxic” in the data set on Glycine max [27]; “Toxic” in the data set on Glycine max [20]; “Toxic” with Zea mays [28]; “Non-toxic” with Gossypium hirsutum [29]; “Toxic” in the data set with Glycine max [30]. In addition, in the data set with Abutilon theophrasti [5], the mortality at 63 g/ha was above 90%. Further, the mortality in [17] is above 90%.
